From patent US20090136472A1, “Use of thiazole derivatives and analogues in disorders caused by free fatty acids” (priority 2005, published 2009)

Columns and labels:
Ob/Ob mice = experiment: Test B insulin measurement study in diabetic Ob/Ob mice; assay type: in vivo; conditions: 1 mg/kg intraperitoneally once daily for 2 weeks
Experimental: Ultra sensitive rat insulin ELISA kit (Crystal Chen inc) according to manufacturer's recommendations.
Serum insulin measurements on 4 hour fasted 8-9 week old Ob/Ob mice (Taconic) were performed. Mice were distributed to a vehicle control group (VC) or a Compound Z treatment group, so that mean s-insulin was equal between the groups. 1 mg/kg bodyweight of Compound Z in PBS/1% v/v DMSO and VC groups were injected intraperitoneally once daily for 2 weeks, after which 4 hour fasted serum insulin levels were measured as described above.

MDA-MB-231 cells = experiment: Test A cell proliferation assay (FFA/linolenic acid-stimulated, cell cycle analysis by flow cytometry); assay type: cell-based, human; conditions: 24 hours; for inhibition at 10 µM: Homo sapiens, at a concentration of 10 μM, cells in S-phase, read-out: percentage antagonist activity (inhibition of FFA induced cell proliferation); for inhibition at 10 µM / antagonism of free fatty acid stimulated cell proliferation: linolenic acid-stimulated MDA-MB-231 cells; for antagonism of free fatty acid stimulated cell proliferation: S-phase by propidium iodine staining
Experimental: Cytomics™ FC500 Flow Cytometer with CXP software (Beckman Coulter) MDA-MB-231 cells MDA-MB-231 cells were cultured in the propagation media D-MEM+1000 mg/L Glucose+GlutaMAX™ 1+Pyruvate supplemented with 10% V/V Foetal Bovine Serum and PEST (100 U/ml penicillin, 100 μg/mL streptomycin). Cells were seeded in 6 well plates to a density of 300000 cells/well in propagation media. After 24 hours, media was replaced with serum free D-MEM media.
Linolenic acid was diluted in DMSO to a concentration of 100 mM and added to the culture media to a final concentration of 100 μM.
Compounds were as dissolved in DMSO to a concentrations of 10 mM (Compounds of Examples 95 and 6 (Compound X and Compound Y, respectively)) and 40 mM (Compound of Example 4 (Compound Z)) and added to the culture media to a final concentration of 10 μM (X and Y) and 40 μM (Z) respectively.
After 24 hours in serum free media DMEM, linolenic acid (to a final concentration of […]) and compounds to be screened for activity were added to a final concentration of 10 μM (Compounds X and Y) and 40 μM (Compound Z) respectively. Final DMSO concentration was kept at 0.2% in all wells. After 24 hours of stimulation, cells were harvested and propidium iodine stained using a CyStain PI absolute T Kit according to manufacturer's recommendations. Cells were subsequently analyzed using a Cytomics™ FC500 Flow Cytometer with CXP software (Beckman Coulter) for cell cycle distribution. Cells were incubated with or without linolenic acid (LA) and the Compounds X, Y and Z for 24 hours at indicated concentrations. Cells in S-phase from untreated sample were set to 100% in each experiment.

`Cc1ccc(N=C2NC(=O)C(Cc3cccc(C(F)(F)F)c3)S2)cc1` (centres unmarked) [Compound Z, 5-(3-(Trifluoromethyl)benzyl)-2-(p-tolylimino)thiazolidin-4-one] was tested, and the “hyperinsulinemia (4 hour fasted serum insulin level)” value (Ob/Ob mice) was “attenuated hyperinsulinemia”, the inhibition at 10 µM (MDA-MB-231 cells) was 50% and the “antagonism of free fatty acid stimulated cell proliferation” value (MDA-MB-231 cells) was “able to antagonize free fatty acid stimulated cell proliferation”.
In the case of `O=C1NC(=Nc2ccccn2)SC1Cc1ccc(F)cc1` (centres unmarked) [Compound X, 5-(4-Fluorobenzyl)-2-(pyridin-2-ylimino)thiazolidin-4-one], the “effect on the basal proliferation of MDA-MB-231 cells” value (MDA-MB-231 cells; Compound X 10 μM without linolenic acid) is reported as “did not exhibit any detectable effect”, the inhibition at 10 µM (MDA-MB-231 cells) is reported as 70% and the “antagonism of free fatty acid stimulated cell proliferation” value (MDA-MB-231 cells) is reported as “able to antagonize free fatty acid stimulated cell proliferation”.
For `O=C1NC(=Nc2ccc(Cl)cc2)SC1Cc1cccc(C(F)(F)F)c1` (centres unmarked) [Compound Y, 5-(3-(Trifluoromethyl)benzyl)-2-(4-chlorophenylimino)thiazolidin-4-one], the inhibition at 10 µM (MDA-MB-231 cells) was 100% and the “antagonism of free fatty acid stimulated cell proliferation” value (MDA-MB-231 cells) was “able to antagonize free fatty acid stimulated cell proliferation”.
